Assay results from US11208405B2, “Pyrrole derivatives as PLK1 inhibitors” (SENTINEL ONCOLOGY LIMITED, priority 2017, dated 2021).
pEC50: −log10 of the molar value. Structures can show the parent of a compound that is named as a salt.

Assays:
Format in all cases: cell-based
[1] = tested on: KRAS G12V HeLa cell line; assay: Wild-type versus KRAS HeLa cell viability: oncogenic KrasG12V transgene; conditions: Homo sapiens; HeLa cells expressing KRAS G12V, 72 hours
Protocol: (§1) Assay to Measure the Effects of Compounds of the Invention on Wild-Type Versus KRAS HeLa Cell Viability
(§2) Identifying synthetic lethal interactions between targeted small molecule therapies and characterised oncogenic mutations is a goal of modern oncology drug discovery efforts. To this end, PLK1-PBD inhibitors were tested on HeLa cells engineered to inducibly express wild-type or oncogenic KrasG12V transgenes using the FLP-in/T-Rex system (Invitrogen). Cells were plated, and then treated with or without Doxycycline to induce transgene expression, and then treated with serially-diluted PBD inhibitors. After 72 hours of incubation, cell viability was assessed using the Cell Titre Blue reagent (Promega) and a BMG Pherastar plate reader. The effect of PBD inhibition on cell viability with either wild-type or oncogenic G12V KRAS was assessed using the graphing/curve-fitting packages in GraphPad Prism.

[2] = tested on: wild-type HeLa cell line; assay: Wild-type versus KRAS HeLa cell viability: wild-type KRAS transgene; conditions: Homo sapiens; HeLa cells expressing wild-type KRAS, 72 hours; read-out: WT GI50
Protocol: as §1, §2

[3] = tested on: HeLa cells; assay: Arresting cells in mitosis (Mitotic Index, phosphorylated Histone H3 immunofluorescence); conditions: HeLa cell line, 24 hours; for pEC50: Homo sapiens, Mitotic Index, read-out: EC50
Protocol: Assay to Measure the Effects of Compounds of the Invention on Arresting Cells in Mitosis
Inhibiting the ability of PLK1 to bind to its phosphopeptide binding partners through the PBD causes cells to arrest in mitosis. Experimentally, this is measured by assessing the number of cells which are in mitosis at a certain time after treatment with a PLK1-PBD inhibitor by immunofluorescent detection of phosphorylated Histone H3 (pH3), a marker which is only present in mitotic cells. PLK1-PBD inhibitors are expected to cause a dose-dependent increase in pH3-positive cells, which is reported as Mitotic Index (MI)—the percentage of cells which, at a given time, are positive for this mitotic mark. The following protocol has been used to measure MI: • 1. Plate HeLa cells at 10,000/well in 100 μL/well in clear flat-bottom 96-well plates and incubate overnight. • 2. Immediately prior to treatment, dilute compounds in medium in a 96-well round-bottom plate. Make up all compounds at 5 times final desired concentration on cells, and serially dilute 1:2 across the plate ensuring that there is 100 μL of each concentration (start with 200 μl of the top concentration on the left of the plate). […] Treat cells by adding 25 μL from the compound dilution plate to triplicate wells. • 4. Incubate cells with compound for 24 hours. • 5. After 24 hours, fixation and staining is carried out as follows: • 6. Dilute 37% formaldehyde in PBS to give a 12.95% solution by adding 3.5 mL formaldehyde to 6.5 mL of PBS. • 7. Add 50 μL of formaldehyde fixation solution directly to each well of cells (which already contain 125 μL medium). • 8. Incubate at room temp for 10 minutes. • 9. Remove fixative and add 100 μL/well PBS+0.1% Triton X-100 for 10 minutes. • 10. Aspirate and add 100 μL/well PBS+1% BSA. • 11. Aspirate and add 50 μL/well of primary antibody (anti-PH3 [1:2000]/anti-MPM2 [1:1000]) diluted in PBS+1% BSA. Incubate for 1 hour. • 12. Wash×2 with 100 μL/well PBS+1% BSA. • 13. Add 50 μL/well of secondary antibody plus Hoechst stain (anti-rabbit Alexafluor 488 [1:500]; anti-mouse Alexafluor 546 [1:500]+Hoechst 33342 [1:2500 final concentration=4 μg/mL])diluted in PBS+1% BSA. Incubate for 1 hour. • 14. Wash twice with 100 μL/well PBS+1% BSA. • 15. Aspirate and add 100 μL/well PBS. Plates can be stored at 4° C. in PBS for several weeks before scanning on the Cellomics Arrayscan. […] Scan on Cellomics using Target Activation Bioapplication. • 17. MI data emerging from the Cellomic Bioapplication can be used to plot MI versus compound concentration, and subsequently used to generate an EC50 value for each compound using an appropriate graphing/curve-fitting package such as GraphPad Prism.

[4] = tested on: HCT116 cells; assay: Effects on HCT116 colorectal cancer cell viability (cell titre blue, 72 hours); conditions: Homo sapiens, HCT-116, HCT116 cell line
[5] = tested on: HCT116 cells (a mutant KRAS G-13D expressing cell line); assay: Drug resistance studies in HCT116 cells; conditions: five times the half maximal growth inhibiting amount, twenty two days

SMILES | GI50 [1] | GI50 [2] | % mitotic cells [3] | pEC50 [3] | GI50 [4] | formation of drug-resistant colonies [5]
CN(C)CCNC(=O)c1cccc(-c2ccc(-c3ccc(Br)cc3)n2-c2ccccc2C(F)(F)F)c1 [Example 2, 3-[5-(4-Bromophenyl)-1-[2-(trifluoromethyl)phenyl]pyrrol-2-yl]-N-[2-(dimethylamino)ethyl]benzamide Hydrochloride] | 50 nM | 180 nM | 86% | 6.07 | – | –
CN(C)CCNC(=O)c1ccc(-c2ccc(-c3ccc(Br)cc3)n2-c2ccccc2C(F)(F)F)cc1 [Example 9, 4-[5-(4-Bromophenyl)-1-[2-(trifluoromethyl)phenyl]pyrrol-2-yl]-N-[2-(dimethylamino)ethyl]benzamide Hydrochloride] | 20 nM | 50 nM | 89% | 6.72 | 30 nM | –
CNCCNC(=O)c1cccc(-c2ccc(-c3ccc(Br)cc3)n2-c2ccccc2C(F)(F)F)c1 [Example 23] | 80 nM | 240 nM | 79% | 6.13 | 390 nM | –
CN(C)CCCNC(=O)c1cccc(-c2ccc(-c3ccc(Br)cc3)n2-c2ccccc2C(F)(F)F)c1 [Example 24] | 80 nM | 260 nM | 77% | 6.21 | 490 nM | –
CN(C)CCNC(=O)c1ccc(-n2ncc(-c3ccc(Cl)cc3)c2-c2ccccc2C(F)(F)F)cc1 [Example 82, 4-[4-(4-Chlorophenyl)-5-[2-(trifluoromethyl)phenyl]pyrazol-1-yl]-N-[2-(dimethylamino)ethyl]-benzamide Hydrochloride] | 10 nM | 30 nM | – | – | 40 nM | –
O=C(NCCN1CCNCC1)c1ccc(-c2ccc(-c3ccc(Cl)cc3)n2-c2ccccc2C(F)(F)F)cc1 [Example 87, hydrochloride] | 8 nM | 20 nM | – | – | 60 nM | –
CN(C)CCNC(=O)Cc1ccc(-c2ccc(-c3ccc(Cl)cc3)n2-c2ccccc2C(F)(F)F)cc1 [Example 91, hydrochloride] | 5 nM | 10 nM | – | – | 10 nM | –
CC[C@@H]1C(=O)N(C)c2cnc(Nc3ccc(C(=O)NC4CCN(C)CC4)cc3OC)nc2N1C1CCCC1 [Example B12536, 4-[[(7R)-8-cyclopentyl-7-ethyl-5,6,7,8-tetrahydro-5-methyl-6-oxo-2-pteridinyl]amino]-3-methoxy-N-(1-methyl-4-piperidinyl)benzamide, reference compound] | – | – | – | – | – | drug-resistant colonies were formed
